Source: PMC5218480 (PLoS ONE, 2017)

Test system: MV-4-11 cells
Assay: Gene expression microarray analysis (Affymetrix PrimeView) and GSEA
Type: cell-based, human
Parameters: RFU PODN (11730768_x_at) / Fold change /veh PODN (11730768_x_at) / RFU LINC00158 (11744669_a_at) / Fold change /veh LINC00158 (11744669_a_at) / RFU DUSP10 (11751237_a_at) / Fold change /veh DUSP10 (11751237_a_at) / RFU ID3 (11757404_x_at) / Fold change /veh ID3 (11757404_x_at) / RFU PLEKHG5 (11737974_s_at) / Fold change /veh PLEKHG5 (11737974_s_at) / RFU LRRC4B (11730491_at) / Fold change /veh LRRC4B (11730491_at) / RFU GIMAP4 (11747438_a_at) / Fold change /veh GIMAP4 (11747438_a_at) / RFU KRT8 (11758183_x_at) / Fold change /veh KRT8 (11758183_x_at) / RFU CNN1 (11734310_a_at) / Fold change /veh CNN1 (11734310_a_at) / RFU VPS37D (11726825_at) / Fold change /veh VPS37D (11726825_at) / RFU C10orf10 (11716522_x_at) / Fold change /veh C10orf10 (11716522_x_at) / RFU KIR2DL2 /// KIR2DL4 /// KIR2DL5A /// KIR2DL5B /// KIR2DS1 /// KIR2DS2 /// KIR2DS3 /// KIR2DS4 /// KIR3DL3 /// KIR3DL3 /// KIR3DS1 (11738374_at) / Fold change /veh KIR2DL2 /// KIR2DL4 /// KIR2DL5A /// KIR2DL5B /// KIR2DS1 /// KIR2DS2 /// KIR2DS3 /// KIR2DS4 /// KIR3DL3 /// KIR3DL3 /// KIR3DS1 (11738374_at) / RFU C1QL1 (11718748_at) / Fold change /veh C1QL1 (11718748_at) / RFU TMPRSS4 (11747572_a_at) / Fold change /veh TMPRSS4 (11747572_a_at) / RFU HAMP (11756126_x_at) / Fold change /veh HAMP (11756126_x_at) / RFU RNFT2 (11725882_a_at) / Fold change /veh RNFT2 (11725882_a_at) / RFU NR4A2 (11747474_a_at) / Fold change /veh NR4A2 (11747474_a_at) / RFU ABCC12 (11746883_a_at) / Fold change /veh ABCC12 (11746883_a_at) / RFU TMEM136 (11760407_x_at) / Fold change /veh TMEM136 (11760407_x_at) / RFU CLDN22 /// WWC2 (11732394_at) / Fold change /veh CLDN22 /// WWC2 (11732394_at) / RFU HLA-DPB1 (11760878_x_at) / Fold change /veh HLA-DPB1 (11760878_x_at) / RFU SPINT1 (11716480_a_at) / Fold change /veh SPINT1 (11716480_a_at) / RFU GAP43 (11754022_s_at) / Fold change /veh GAP43 (11754022_s_at) / RFU A4GNT (11735810_at) / Fold change /veh A4GNT (11735810_at) / RFU PRB3 (11715151_x_at) / Fold change /veh PRB3 (11715151_x_at) / RFU TUBB4B (11761932_at) / Fold change /veh TUBB4B (11761932_at) / RFU CAPN14 (11732068_a_at) / Fold change /veh CAPN14 (11732068_a_at) / RFU TMCC2 (11721928_a_at) / Fold change /veh TMCC2 (11721928_a_at) / RFU IRGQ (11745062_a_at) / Fold change /veh IRGQ (11745062_a_at) / RFU FAM174B (11720279_a_at) / Fold change /veh FAM174B (11720279_a_at) / RFU TMPRSS4 (11748680_a_at) / Fold change /veh TMPRSS4 (11748680_a_at) / RFU FAM212B (11763350_a_at) / Fold change /veh FAM212B (11763350_a_at) / RFU PLEKHG5 (11743358_a_at) / Fold change /veh PLEKHG5 (11743358_a_at) / RFU ZSCAN30 (11745921_a_at) / Fold change /veh ZSCAN30 (11745921_a_at) / RFU CMKLR1 (11741424_a_at) / Fold change /veh CMKLR1 (11741424_a_at) / RFU LOC101060620 /// MAPK8IP1 (11723275_at) / Fold change /veh LOC101060620 /// MAPK8IP1 (11723275_at) / RFU SPTSSB (11747773_x_at) / Fold change /veh SPTSSB (11747773_x_at) / RFU PRSS12 (11739890_at) / Fold change /veh PRSS12 (11739890_at) / RFU BIN1 (11741810_x_at) / Fold change /veh BIN1 (11741810_x_at) / RFU WNT11 (11732464_a_at) / Fold change /veh WNT11 (11732464_a_at) / RFU C10orf10 (11716521_a_at) / Fold change /veh C10orf10 (11716521_a_at) / RFU C5orf56 (11738089_at) / Fold change /veh C5orf56 (11738089_at) / RFU CYB561 (11721691_x_at) / Fold change /veh CYB561 (11721691_x_at) / RFU ANKRD19P (11752326_a_at) / Fold change /veh ANKRD19P (11752326_a_at) / RFU OR2T12 /// OR2T33 /// OR2T8 (11738714_s_at) / Fold change /veh OR2T12 /// OR2T33 /// OR2T8 (11738714_s_at) / RFU VCAN (11748164_a_at) / Fold change /veh VCAN (11748164_a_at) / RFU JSRP1 (11732532_at) / Fold change /veh JSRP1 (11732532_at) / RFU KRTAP10-11 (11738290_x_at) / Fold change /veh KRTAP10-11 (11738290_x_at) / RFU MYO3A (11730013_a_at) / Fold change /veh MYO3A (11730013_a_at) / RFU EBF3 (11725865_a_at) / Fold change /veh EBF3 (11725865_a_at) / RFU CAMK2N1 (11719241_x_at) / Fold change /veh CAMK2N1 (11719241_x_at) / RFU C5orf56 (11738088_a_at) / Fold change /veh C5orf56 (11738088_a_at) / RFU OLFML3 (11715873_a_at) / Fold change /veh OLFML3 (11715873_a_at) / RFU LOC100653217 /// NTM (11731650_a_at) / Fold change /veh LOC100653217 /// NTM (11731650_a_at) / RFU MAPK11 (11762145_a_at) / Fold change /veh MAPK11 (11762145_a_at) / RFU FIZ1 (11724087_x_at) / Fold change /veh FIZ1 (11724087_x_at) / RFU OASL (11726364_x_at) / Fold change /veh OASL (11726364_x_at) / RFU SOX15 (11748057_x_at) / Fold change /veh SOX15 (11748057_x_at) / RFU CD79A (11719716_a_at) / Fold change /veh CD79A (11719716_a_at) / RFU HIST1H1D (11736915_at) / Fold change /veh HIST1H1D (11736915_at) / RFU CASKIN2 (11723855_a_at) / Fold change /veh CASKIN2 (11723855_a_at) / RFU LOC730098 (11760151_x_at) / Fold change /veh LOC730098 (11760151_x_at) / RFU OR4N2 (11742367_at) / Fold change /veh OR4N2 (11742367_at) / RFU PRRT2 (11749266_a_at) / Fold change /veh PRRT2 (11749266_a_at) / RFU SNX32 (11753110_a_at) / Fold change /veh SNX32 (11753110_a_at) / RFU CDHR5 (11726645_a_at) / Fold change /veh CDHR5 (11726645_a_at) / RFU RCAN1 (11760418_a_at) / Fold change /veh RCAN1 (11760418_a_at) / RFU FAM167A (11723789_a_at) / Fold change /veh FAM167A (11723789_a_at) / RFU FAM26E (11764081_at) / Fold change /veh FAM26E (11764081_at) / RFU ISYNA1 (11749810_s_at) / Fold change /veh ISYNA1 (11749810_s_at) / RFU ACY1 (11761880_at) / Fold change /veh ACY1 (11761880_at) / RFU 11764098_at / Fold change /veh 11764098_at / RFU SAMD14 (11745864_x_at) / Fold change /veh SAMD14 (11745864_x_at) / RFU NPB (11741838_a_at) / Fold change /veh NPB (11741838_a_at) / RFU TMPRSS6 (11731388_a_at) / Fold change /veh TMPRSS6 (11731388_a_at) / RFU KRTAP10-2 (11738614_at) / Fold change /veh KRTAP10-2 (11738614_at) / RFU ARHGAP8 /// PRR5-ARHGAP8 (11727945_x_at) / Fold change /veh ARHGAP8 /// PRR5-ARHGAP8 (11727945_x_at) / RFU KRTAP5-7 /// NADSYN1 (11734609_at) / Fold change /veh KRTAP5-7 /// NADSYN1 (11734609_at) / RFU RASL12 (11751679_a_at) / Fold change /veh RASL12 (11751679_a_at) / RFU CDKN2B (11736163_a_at) / Fold change /veh CDKN2B (11736163_a_at) / RFU PRF1 (11729649_at) / Fold change /veh PRF1 (11729649_at) / RFU, ZNF638 /// ZNF638-IT1 / Fold change vs veh, ZNF638 /// ZNF638-IT1 / RFU, PANK3 / Fold change vs veh, PANK3 / RFU, SH3YL1 / Fold change vs veh, SH3YL1 / RFU, ZEB2 / Fold change vs veh, ZEB2 / RFU, NRIP1 / Fold change vs veh, NRIP1 / RFU, PTTG1IP / Fold change vs veh, PTTG1IP / RFU, CAPN2 / Fold change vs veh, CAPN2 / RFU, MED14 / Fold change vs veh, MED14 / RFU, SNORA58 / Fold change vs veh, SNORA58 / RFU, C1orf63 / Fold change vs veh, C1orf63 / RFU, LRRFIP1 / Fold change vs veh, LRRFIP1 / RFU, NDUFAF7 / Fold change vs veh, NDUFAF7 / RFU, SLC12A2 / Fold change vs veh, SLC12A2 / RFU, IBTK / Fold change vs veh, IBTK / RFU, ESF1 / Fold change vs veh, ESF1 / Fold change vs veh, TMEM50B / RFU, TAOK1 / Fold change vs veh, TAOK1 / RFU, ACBD3 / Fold change vs veh, ACBD3 / RFU, TMA16 / Fold change vs veh, TMA16 / RFU, RWDD3 / Fold change vs veh, RWDD3 / RFU, BCAT1 / Fold change vs veh, BCAT1 / RFU, EDEM3 / Fold change vs veh, EDEM3 / RFU, TMEM33 / Fold change vs veh, TMEM33 / RFU, WDR75 / Fold change vs veh, WDR75 / RFU, AHCTF1 / Fold change vs veh, AHCTF1 / RFU, TFRC / Fold change vs veh, TFRC / RFU, ZDHHC17 / Fold change vs veh, ZDHHC17 / RFU, NOM1 / Fold change vs veh, NOM1 / RFU, ARL8B / Fold change vs veh, ARL8B / RFU, ZBTB11 / Fold change vs veh, ZBTB11 / RFU, TAMM41 / Fold change vs veh, TAMM41 / RFU, KIAA1704 /// LOC100996395 / Fold change vs veh, KIAA1704 /// LOC100996395 / RFU, ING1 / Fold change vs veh, ING1 / RFU, TRMT61B / Fold change vs veh, TRMT61B / RFU, FUBP3 / Fold change vs veh, FUBP3 / RFU, TP53 / Fold change vs veh, TP53 / RFU, TNKS2 / Fold change vs veh, TNKS2 / RFU, ZFP14 / Fold change vs veh, ZFP14 / RFU, ACTR2 / Fold change vs veh, ACTR2 / RFU, PPP3R1 / Fold change vs veh, PPP3R1 / RFU, PIK3R1 / Fold change vs veh, PIK3R1 / RFU, HNRNPA1 / Fold change vs veh, HNRNPA1 / RFU, RNF170 / Fold change vs veh, RNF170 / RFU, ZNF28 / Fold change vs veh, ZNF28 / RFU, RNGTT / Fold change vs veh, RNGTT / RFU, OGT / Fold change vs veh, OGT / RFU, BRD1 / Fold change vs veh, BRD1 / RFU, MARS / Fold change vs veh, MARS / RFU, ZNF655 / Fold change vs veh, ZNF655 / RFU, FAHD1 / Fold change vs veh, FAHD1 / RFU, BDP1 / Fold change vs veh, BDP1 / RFU, LRRCC1 / Fold change vs veh, LRRCC1 / RFU, ARID1A / Fold change vs veh, ARID1A / RFU, ZNF146 / Fold change vs veh, ZNF146 / RFU, ZNF330 / Fold change vs veh, ZNF330 / RFU, GPN3 / Fold change vs veh, GPN3 / RFU, C9orf123 / Fold change vs veh, C9orf123 / RFU, N4BP2L2 / Fold change vs veh, N4BP2L2 / RFU, ARFIP1 / Fold change vs veh, ARFIP1 / RFU, FAM179B / Fold change vs veh, FAM179B / RFU, BCL10 / Fold change vs veh, BCL10 / RFU, UHRF1BP1L / Fold change vs veh, UHRF1BP1L / RFU, BET1 / Fold change vs veh, BET1 / RFU, CNOT2 / Fold change vs veh, CNOT2 / RFU, ZNF268 / Fold change vs veh, ZNF268 / Fold change vs veh, ZNF507 / RFU, DGCR2 / Fold change vs veh, DGCR2 / RFU, WDSUB1 / Fold change vs veh, WDSUB1 / Fold change vs veh, HSP90B1 /// MIR3652 / RFU, ADSS / Fold change vs veh, ADSS / RFU, GK / Fold change vs veh, GK / RFU, ZNF148 / Fold change vs veh, ZNF148 / RFU, TAF9 / Fold change vs veh, TAF9 / RFU, SLC1A5 / Fold change vs veh, SLC1A5 / RFU, SLMO2 / Fold change vs veh, SLMO2 / RFU, ABCC4 / Fold change vs veh, ABCC4 / RFU, LOC101060439 /// RAP1B / Fold change vs veh, LOC101060439 /// RAP1B / RFU, RFX7 / Fold change vs veh, RFX7 / RFU, GTPBP10 / Fold change vs veh, GTPBP10 / RFU, CNEP1R1 / Fold change vs veh, CNEP1R1 / RFU, BIVM-ERCC5 /// ERCC5 / Fold change vs veh, BIVM-ERCC5 /// ERCC5 / RFU, ILF3 / Fold change vs veh, ILF3 / RFU 11762660_at / Fold change /veh 11762660_at / RFU VCAN (11757783_s_at) / Fold change /veh VCAN (11757783_s_at) / RFU DDX43 (11728927_at) / Fold change /veh DDX43 (11728927_at) / RFU KRT8 (11758188_x_at) / Fold change /veh KRT8 (11758188_x_at) / RFU NKD1 (11759106_at) / Fold change /veh NKD1 (11759106_at) / RFU SRD5A1 (11742802_a_at) / Fold change /veh SRD5A1 (11742802_a_at) / RFU TPSAB1 /// TPSB2 (11721975_s_at) / Fold change /veh TPSAB1 /// TPSB2 (11721975_s_at) / RFU GSTM3 (11746129_a_at) / Fold change /veh GSTM3 (11746129_a_at) / RFU IL23R (11737362_x_at) / Fold change /veh IL23R (11737362_x_at) / RFU TMEM51 (11727254_a_at) / Fold change /veh TMEM51 (11727254_a_at) / RFU PIWIL2 (11732686_x_at) / Fold change /veh PIWIL2 (11732686_x_at) / RFU ORM1 (11744905_x_at) / Fold change /veh ORM1 (11744905_x_at) / RFU CCDC152 (11743942_at) / Fold change /veh CCDC152 (11743942_at) / RFU ECM1 (11717891_a_at) / Fold change /veh ECM1 (11717891_a_at) / RFU IL23R (11748794_a_at) / Fold change /veh IL23R (11748794_a_at) / RFU TNFAIP8L3 (11732012_x_at) / Fold change /veh TNFAIP8L3 (11732012_x_at) / RFU MBOAT4 (11741988_at) / Fold change /veh MBOAT4 (11741988_at) / RFU 11764193_at / Fold change /veh 11764193_at / RFU TMEM53 (11763286_at) / Fold change /veh TMEM53 (11763286_at) / RFU MAGEB2 (11727129_at) / Fold change /veh MAGEB2 (11727129_at) / RFU TMEM200A (11744735_a_at) / Fold change /veh TMEM200A (11744735_a_at) / RFU CCDC152 (11751479_a_at) / Fold change /veh CCDC152 (11751479_a_at) / RFU FAM211A (11726209_a_at) / Fold change /veh FAM211A (11726209_a_at) / RFU RGS16 (11746705_a_at) / Fold change /veh RGS16 (11746705_a_at) / RFU VCAN (11755009_s_at) / Fold change /veh VCAN (11755009_s_at) / RFU RHOB (11743442_s_at) / Fold change /veh RHOB (11743442_s_at) / RFU RGS16 (11720943_a_at) / Fold change /veh RGS16 (11720943_a_at) / RFU RGS16 (11720944_at) / Fold change /veh RGS16 (11720944_at) / RFU, VPS4B / Fold change vs veh, VPS4B / RFU, CREB1 / Fold change vs veh, CREB1 / RFU, DNAJC13 / Fold change vs veh, DNAJC13 / RFU, GNAQ / Fold change vs veh, GNAQ / RFU, CDK5R1 / Fold change vs veh, CDK5R1 / RFU, ZRANB3 / Fold change vs veh, ZRANB3 / RFU, CUL4A / Fold change vs veh, CUL4A / RFU, CCNY / Fold change vs veh, CCNY / RFU, UFL1 / Fold change vs veh, UFL1 / RFU, COG3 / Fold change vs veh, COG3 / RFU, DIAPH2 / Fold change vs veh, DIAPH2 / RFU, SKA2 / Fold change vs veh, SKA2 / RFU, AFF3 / Fold change vs veh, AFF3 / RFU, LMF1 / Fold change vs veh, LMF1 / RFU, IPO11 / Fold change vs veh, IPO11 / RFU, DFFB / Fold change vs veh, DFFB / RFU, FOXP1 / Fold change vs veh, FOXP1 / RFU, CARD8 / Fold change vs veh, CARD8 / RFU, STRN3 / Fold change vs veh, STRN3 / RFU, ADK / Fold change vs veh, ADK / RFU, RASSF2 / Fold change vs veh, RASSF2 / RFU, WIPF1 / Fold change vs veh, WIPF1 / RFU, LARP1B / Fold change vs veh, LARP1B / RFU, RASA1 / Fold change vs veh, RASA1 / RFU, RB1 / Fold change vs veh, RB1 / RFU, PPFIA1 / Fold change vs veh, PPFIA1 / RFU, MAT2A / Fold change vs veh, MAT2A / RFU, CCT5 / Fold change vs veh, CCT5 / RFU, WDR92 / Fold change vs veh, WDR92 / RFU, CUX1 / Fold change vs veh, CUX1 / RFU, TTC7A / Fold change vs veh, TTC7A / RFU, TMEM135 / Fold change vs veh, TMEM135 / RFU, DEPTOR / Fold change vs veh, DEPTOR / RFU, CPM / Fold change vs veh, CPM / RFU, DNAJB6 / Fold change vs veh, DNAJB6 / RFU, CACNA2D3 / Fold change vs veh, CACNA2D3 / RFU, DTX4 / Fold change vs veh, DTX4 / RFU, TFCP2 / Fold change vs veh, TFCP2 / RFU, GMCL1 /// GMCL1P1 / Fold change vs veh, GMCL1 /// GMCL1P1 / RFU, AEBP2 / Fold change vs veh, AEBP2 / RFU, SNHG1 /// SNORD22 /// SNORD25 /// SNORD26 /// SNORD27 /// SNORD28 /// SNORD29 /// SNORD31 / Fold change vs veh, SNHG1 /// SNORD22 /// SNORD25 /// SNORD26 /// SNORD27 /// SNORD28 /// SNORD29 /// SNORD31 / Fold change (Aza/veh), C12orf56 (ProbeSet 11735607_a_at) / Fold change (ACY-1035/veh), C12orf56 (ProbeSet 11735607_a_at) / Fold change (Aza/veh), FGFR1OP (ProbeSet 11751329_s_at) / Fold change (ACY-1035/veh), FGFR1OP (ProbeSet 11751329_s_at) / Fold change (Aza/veh), VPS36 (ProbeSet 11739960_a_at) / Fold change (ACY-1035/veh), VPS36 (ProbeSet 11739960_a_at) / RFU SYPL1 (11715823_x_at) / Fold change /veh SYPL1 (11715823_x_at) / RFU IGFBP7 (11715501_s_at) / Fold change /veh IGFBP7 (11715501_s_at) / RFU REEP3 (11722064_at) / Fold change /veh REEP3 (11722064_at) / RFU IGLL1 (11728026_x_at) / Fold change /veh IGLL1 (11728026_x_at): dose or concentration left out as unconfirmed
Details: MV-4-11 cells, 48 hours

With `Nc1ccc(-c2cccs2)cc1NC(=O)c1ccc2c(c1)cc(C1CC1)n2CCN1CCOCC1` [ACY-1035] the “Fold change /veh TNFAIP8L3 (11732012_x_at)” value was 1.18.
